Consider four compounds from BindingDB's records for doi:10.1021/jm00008a012 (University of Minnesota, 1995).

The nature of test [1]: Tested for binding affinity against delta2 opioid receptor using [3H]DSLET as a radioligand in the guinea pig brain membranes.
A short description of test [2]: Tested for binding affinity against delta1 opioid receptor using [3H]-DPDPE as a radioligand in the guinea pig brain membranes.

On to `O=C(CBr)Nc1cccc(Cn2c3c(c4ccccc42)C[C@@]2(O)C4Cc5ccc(O)c6c5C2(CCN4CC2CC2)[C@H]3O6)c1` (stereo partly drawn) [1N-{3-[22-cyclopropylmethyl-2,16-dihydroxy-14-oxa-11,22-diazaheptacyclo[13.9.1.01,13.02,21.04,12.05,10.019,25]pentacosa-4(12),5(10),6,8,15,17,19(25)-heptaen-11-ylmethyl]phenyl}-2-bromoacetamide], for which the inhibition constant (Ki) (commonly the dissociation constant of the complex between target and ligand, obtained from inhibition or displacement) in test [1] stood at 0.038 nM; in test [2] it was 0.019 nM.

Turning to `Oc1ccc2c3c1O[C@H]1c4c(c5ccccc5n4Cc4ccccc4N=C=S)C[C@@]4(O)C(C2)N(CC2CC2)CCC314` (stereo partly drawn) [22-cyclopropylmethyl-11-(2-isothiocyanatobenzyl)-14-oxa-11,22-diazaheptacyclo[13.9.1.01,13.02,21.04,12.05,10.019,25]pentacosa-4(12),5(10),6,8,15,17,19(25)-heptaene-2,16-diol], the Ki in test [1] stood at 3.6 nM; in test [2], 2 nM.

On to `Oc1ccc2c3c1O[C@H]1c4c(c5ccccc5n4Cc4cccc(N=C=S)c4)C[C@@]4(O)C(C2)N(CC2CC2)CCC314` (stereo partly drawn) [22-cyclopropylmethyl-11-(3-isothiocyanatobenzyl)-14-oxa-11,22-diazaheptacyclo[13.9.1.01,13.02,21.04,12.05,10.019,25]pentacosa-4(12),5(10),6,8,15,17,19(25)-heptaene-2,16-diol], for which the inhibition constant (Ki) in test [1] worked out at 7 nM; in test [2] it was 4.2 nM.

Turning to `Oc1ccc2c3c1O[C@H]1c4c(c5ccccc5n4Cc4ccc(N=C=S)cc4)C[C@@]4(O)C(C2)N(CC2CC2)CCC314` (stereo partly drawn) [22-cyclopropylmethyl-11-(4-isothiocyanatobenzyl)-14-oxa-11,22-diazaheptacyclo[13.9.1.01,13.02,21.04,12.05,10.019,25]pentacosa-4(12),5(10),6,8,15,17,19(25)-heptaene-2,16-diol], the inhibition constant (Ki) in test [1] is 5 nM; in test [2] it was 5.3 nM.
